Measurements as given in US9850283B2, “Macrocyclic inhibitors of the PD-1/PD-L1 and CD80(B7-1)/PD-L1 protein/protein interactions” (BRISTOL-MYERS SQUIBB COMPANY, priority 2013, dated 2017).
Positions of bridges follow the written chain, without caps; N, C: chain ends. Non-standard residues stand in square brackets, D forms with d. Residues, ends and D or L forms follow the SMILES beside them. Hyp = O=C(O)[C@@H]1C[C@@H](O)CN1; tBuAla = CC(C)(C)C[C@H](N)C(=O)O; NMeNle = CCCC[C@H](NC)C(=O)O; NMeA = CN[C@@H](C)C(=O)O; Dab = NCC[C@H](N)C(=O)O; Dap = NC[C@H](N)C(=O)O

How the values were obtained:
[1] = molecular target: T1, LK35.2-hPD-L1 cells / PE-labeled PD-1-Ig (Homo sapiens, UniProt Q9NZQ7); assay: LK35.2-hPD-L1 cell binding high-content screening assay; type: cell-based; conditions: cell binding assay, cell line not given; cluster symbol; read-out: CBA IC50 cluster
T1 construct: expressed in transfected cells; host or cells: LK35.2 mouse B cell line
Procedure, shortened: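 Compound effect on PD-1/PD-L1 binding is measured by imaging cell-associated phycoerythrin signal. Human PD-1-Ig (PE on Ig tag, 1 nM final) is applied with compound to a murine B cell line overexpressing human PD-L1 for 1 h at 37 °C in serum-containing RPMI.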

[2] = molecular target: T2, Human PD-L1/PD-1 (Homo sapiens, UniProt Q9NZQ7); assay: HTRF PD-1-Ig/PD-L1-His binding assay (human PD-L1); conditions: cluster symbol; read-out: HTRF IC50 cluster
T2 construct: made in house; host or cells: HEK293T
Procedure, shortened: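 Ig- and His-fused extracellular PD-1/PD-L1 binding in BSA/Tween-20 dPBS. HTRF with Eu anti-Ig (1 nM final) and APC anti-His (20 nM final).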

T1 sequence (Q9NZQ7 19-290): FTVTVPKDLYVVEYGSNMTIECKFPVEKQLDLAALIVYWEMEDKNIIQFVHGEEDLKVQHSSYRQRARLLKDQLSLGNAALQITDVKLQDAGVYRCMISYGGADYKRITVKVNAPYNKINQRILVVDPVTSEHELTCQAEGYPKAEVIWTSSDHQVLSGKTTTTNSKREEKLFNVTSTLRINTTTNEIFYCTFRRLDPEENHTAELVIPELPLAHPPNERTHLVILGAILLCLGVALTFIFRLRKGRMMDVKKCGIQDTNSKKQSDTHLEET
T2 sequence (Q9NZQ7 with tags, fused parts or gaps): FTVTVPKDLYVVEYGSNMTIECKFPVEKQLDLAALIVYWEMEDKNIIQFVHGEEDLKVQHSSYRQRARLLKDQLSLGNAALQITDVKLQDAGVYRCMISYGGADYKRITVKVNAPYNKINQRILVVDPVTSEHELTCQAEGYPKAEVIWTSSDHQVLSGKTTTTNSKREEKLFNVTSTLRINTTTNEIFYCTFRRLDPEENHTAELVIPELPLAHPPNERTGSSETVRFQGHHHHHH

Row | IC50 [1] [nM] | IC50 [2] [nM] | SMILES
1 | 0.158 to 4.71 | 0.385 to 6.74 | CCCC[C@H]1C(=O)N(C)[C@@H](CCCC)C(=O)N[C@@H](CN)C(=O)N[C@H](C(=O)NCC(N)=O)CSCC(=O)N[C@@H](Cc2ccc(O)cc2)C(=O)N(C)[C@@H](C)C(=O)N[C@@H](CC(N)=O)C(=O)N2CCC[C@H]2C(=O)N[C@@H](CN)C(=O)N[C@@H](CC(C)C)C(=O)N2C[C@H](O)C[C@H]2C(=O)N[C@@H](Cc2c[nH]c3ccccc23)C(=O)N[C@@H](CO)C(=O)N[C@@H](Cc2c[nH]c3ccccc23)C(=O)N1C [Example 5063] ({CH2CO}-Y[NMeA]NP[Dap]L[Hyp]WSW[NMeNle][NMeNle][Dap]CG-NH2; thioether N-14)
2 | 0.158 to 4.71 | 0.385 to 6.74 | CCCC[C@H]1C(=O)N(C)[C@@H](CCCC)C(=O)N[C@@H](CN)C(=O)N[C@H](C(=O)NCC(N)=O)CSCC(=O)N[C@@H](Cc2ccc(O)cc2)C(=O)N(C)[C@@H](C)C(=O)N[C@@H](CC(N)=O)C(=O)N2CCC[C@H]2C(=O)N[C@@H](Cc2c[nH]cn2)C(=O)N[C@@H](CCC(=O)O)C(=O)N2C[C@H](O)C[C@H]2C(=O)N[C@@H](Cc2c[nH]c3ccccc23)C(=O)N[C@@H](CCN)C(=O)N[C@@H](Cc2c[nH]c3ccccc23)C(=O)N1C [Example 5064] ({CH2CO}-Y[NMeA]NPHE[Hyp]W[Dab]W[NMeNle][NMeNle][Dap]CG-NH2; thioether N-14)
3 | 0.158 to 4.71 | 0.385 to 6.74 | CCCC[C@H]1C(=O)N(C)[C@@H](CCCC)C(=O)N[C@@H](CC(C)C)C(=O)N[C@H](C(=O)NCC(N)=O)CSCC(=O)N[C@@H](Cc2ccc(O)cc2)C(=O)N(C)[C@@H](C)C(=O)N[C@@H](CC(N)=O)C(=O)N2CCC[C@H]2C(=O)N[C@@H](Cc2c[nH]cn2)C(=O)N[C@@H](CCC(=O)O)C(=O)N2C[C@H](O)C[C@H]2C(=O)N[C@@H](Cc2c[nH]c3ccccc23)C(=O)N[C@@H](CCN)C(=O)N[C@@H](Cc2c[nH]c3ccccc23)C(=O)N1C [Example 5065] ({CH2CO}-Y[NMeA]NPHE[Hyp]W[Dab]W[NMeNle][NMeNle]LCG-NH2; thioether N-14)
4 | 0.158 to 4.71 | 0.385 to 6.74 | CCCC[C@H]1C(=O)N(C)[C@@H](CCCC)C(=O)N[C@@H](CC(C)C)C(=O)N[C@H](C(=O)NCC(N)=O)CSCC(=O)N[C@@H](Cc2ccc(O)cc2)C(=O)N(C)[C@@H](C)C(=O)N[C@@H](CC(=O)O)C(=O)N2CCC[C@H]2C(=O)N[C@@H](Cc2cnc[nH]2)C(=O)N[C@@H](CCC(=O)O)C(=O)N2C[C@H](O)C[C@H]2C(=O)N[C@@H](Cc2c[nH]c3ccccc23)C(=O)N[C@@H](CCN)C(=O)N[C@@H](Cc2c[nH]c3ccccc23)C(=O)N1C [Example 5066] ({CH2CO}-Y[NMeA]DPHE[Hyp]W[Dab]W[NMeNle][NMeNle]LCG-NH2; thioether N-14)
5 | 0.158 to 4.71 | 6.76 to 30.3 | CCCC[C@H]1C(=O)N(C)[C@@H](CCCC)C(=O)N[C@@H](CCCNC(=N)N)C(=O)N[C@H](C(=O)NCC(=O)O)CSCC(=O)N[C@@H](Cc2ccc(O)cc2)C(=O)N(C)[C@@H](C)C(=O)N[C@@H](CC(N)=O)C(=O)N2CCC[C@H]2C(=O)N[C@@H](Cc2cnc[nH]2)C(=O)N[C@@H](CC(C)C)C(=O)N2C[C@H](O)C[C@H]2C(=O)N[C@@H](Cc2c[nH]c3ccccc23)C(=O)N[C@@H](CO)C(=O)N[C@@H](Cc2c[nH]c3ccccc23)C(=O)N1C [Example 5068]
6 | 0.158 to 4.71 | 0.385 to 6.74 | CCCC[C@H]1C(=O)N(C)[C@@H](CCCC)C(=O)N[C@@H](CCC(=O)O)C(=O)N[C@H](C(=O)NCC(N)=O)CSCC(=O)N[C@@H](Cc2ccc(O)cc2)C(=O)N(C)[C@@H](C)C(=O)N[C@@H](CC(=O)O)C(=O)N2CCC[C@H]2C(=O)N[C@@H](Cc2cnc[nH]2)C(=O)N[C@@H](CCCCN)C(=O)N2C[C@H](O)C[C@H]2C(=O)N[C@@H](Cc2c[nH]c3ccccc23)C(=O)N[C@@H](CCCCN)C(=O)N[C@@H](Cc2c[nH]c3ccccc23)C(=O)N1C [Example 5069] ({CH2CO}-Y[NMeA]DPHK[Hyp]WKW[NMeNle][NMeNle]ECG-NH2; thioether N-14)
7 | 0.158 to 4.71 | 0.385 to 6.74 | CCCC[C@H]1C(=O)N(C)[C@@H](CCCC)C(=O)N[C@@H](CC(C)C)C(=O)N[C@H](C(=O)NCC(N)=O)CSCC(=O)N[C@@H](Cc2ccc(O)cc2)C(=O)N(C)[C@@H](C)C(=O)N[C@@H](CC(N)=O)C(=O)N2CCC[C@H]2C(=O)N[C@@H](CN)C(=O)N[C@@H](CC(C)C)C(=O)N2C[C@H](O)C[C@H]2C(=O)N[C@@H](Cc2c[nH]c3ccccc23)C(=O)N[C@@H](CO)C(=O)N[C@@H](Cc2c[nH]c3ccccc23)C(=O)N1C [Example 5070] ({CH2CO}-Y[NMeA]NP[Dap]L[Hyp]WSW[NMeNle][NMeNle]LCG-NH2; thioether N-14)
8 | 0.158 to 4.71 | 0.385 to 6.74 | CCCC[C@H]1C(=O)N(C)[C@@H](CCCC)C(=O)N[C@@H](CC(C)C)C(=O)N[C@H](C(=O)NCC(N)=O)CSCC(=O)N[C@@H](Cc2ccc(O)cc2)C(=O)N(C)[C@@H](C)C(=O)N[C@@H](CC(N)=O)C(=O)N2CCC[C@H]2C(=O)N[C@@H](CO)C(=O)N[C@@H](CC(C)C)C(=O)N2C[C@H](O)C[C@H]2C(=O)N[C@@H](Cc2c[nH]c3ccccc23)C(=O)N[C@@H](CCN)C(=O)N[C@@H](Cc2c[nH]c3ccccc23)C(=O)N1C [Example 5073] ({CH2CO}-Y[NMeA]NPSL[Hyp]W[Dab]W[NMeNle][NMeNle]LCG-NH2; thioether N-14)
9 | 0.158 to 4.71 | 0.385 to 6.74 | CCCC[C@H]1C(=O)N(C)[C@@H](CCCC)C(=O)N[C@@H](CC(C)C)C(=O)N[C@H](C(=O)NCC(N)=O)CSCC(=O)N[C@@H](Cc2ccc(O)cc2)C(=O)N(C)[C@@H](C)C(=O)N[C@@H](CC(N)=O)C(=O)N2CCC[C@H]2C(=O)N[C@@H](CO)C(=O)N[C@@H](CCC(=O)O)C(=O)N2C[C@H](O)C[C@H]2C(=O)N[C@@H](Cc2c[nH]c3ccccc23)C(=O)N[C@@H](CCN)C(=O)N[C@@H](Cc2c[nH]c3ccccc23)C(=O)N1C [Example 5074] ({CH2CO}-Y[NMeA]NPSE[Hyp]W[Dab]W[NMeNle][NMeNle]LCG-NH2; thioether N-14)
10 | 0.158 to 4.71 | 0.385 to 6.74 | CCCC[C@H]1C(=O)N(C)[C@@H](CCCC)C(=O)N[C@@H](CC(C)C)C(=O)N[C@H](C(=O)NCC(N)=O)CSCC(=O)N[C@@H](Cc2ccc(O)cc2)C(=O)N(C)[C@@H](C)C(=O)N[C@@H](CC(N)=O)C(=O)N2CCC[C@H]2C(=O)N[C@@H](Cc2c[nH]cn2)C(=O)N[C@@H](CCC(N)=O)C(=O)N2C[C@H](O)C[C@H]2C(=O)N[C@@H](Cc2c[nH]c3ccccc23)C(=O)N[C@@H](CO)C(=O)N[C@@H](Cc2c[nH]c3ccccc23)C(=O)N1C [Example 5075] ({CH2CO}-Y[NMeA]NPHQ[Hyp]WSW[NMeNle][NMeNle]LCG-NH2; thioether N-14)
11 | 4.78 to 72.9 | 6.76 to 30.3 | CCCC[C@H]1C(=O)N(C)[C@@H](CCCC)C(=O)N[C@@H](CC(C)(C)C)C(=O)N[C@H](C(=O)NCC(N)=O)CSCC(=O)N[C@@H](Cc2ccc(O)cc2)C(=O)N(C)[C@@H](C)C(=O)N[C@@H](CC(N)=O)C(=O)N2CCC[C@H]2C(=O)N[C@@H](Cc2c[nH]cn2)C(=O)N[C@@H](CCC(N)=O)C(=O)N2C[C@H](O)C[C@H]2C(=O)N[C@@H](Cc2c[nH]c3ccccc23)C(=O)N[C@@H](CO)C(=O)N[C@@H](Cc2c[nH]c3ccccc23)C(=O)N1C [Example 5076] ({CH2CO}-Y[NMeA]NPHQ[Hyp]WSW[NMeNle][NMeNle][tBuAla]CG-NH2; thioether N-14)
